Reference: ChEMBL document CHEMBL4196143, “Total Synthesis and Structure Revision of Palmarumycin B6” (2018)

System: Aedes albopictus
Assay: Larvicidal activity against Aedes albopictus assessed as […] larval mortality after 24 hrs
Assay type: functional

Row | SMILES | LC50 [µM]
1 | O=C1CCC2(Oc3cccc4cccc(c34)O2)c2c(Cl)ccc(O)c21 | 227
2 | O=C1CCC2(Oc3cccc4cccc(c34)O2)c2ccc(Cl)c(O)c21 | 32.7
